Source: patent EP4345091A1, “BENZOIC ACID DERIVATIVES, METHODS AND USES THEREOF” (priority 2022, dated 2024)
≈ marks a conversion by molar mass, not a printed value. Like-named read-outs stand apart in the source and are kept apart here.

Assays:
[1] = pH 7.4
Description: (§3) Chemical hydrolysis was evaluated in phosphate buffer at physiological pH (7.4) to determine its influence in enzymatic studies.
(§4) 1176 µL pH 7.4 phosphate buffer or pH 5.9 phosphate buffer, 18 µL ACN and 6 µL of a 10-1 M stock solution of the prodrug in ACN were mixed in a 2mL vial. The solution was incubated at 37 °C and 50 µL aliquots were removed, mixed with 450 µL of ACN: H2O 1:1. The solution was analysed by HPLC, the remaining substrate and the correspondent acid were both measured.
(§5) The eluant was a mixture of acetonitrile (60%/70%) and aqueous phosphate buffer with 5% of KH2PO4/H3PO4 0.025M (40%/30%). The flow rate was always 1 mL/1 min and wavelength was set at 230 nm. All quantifications were evaluated using calibration curves from stock solutions.
(§6) The initial substrate concentration was 5 x 10^-4 M in all stability assays. All incubations were carried out at pH 7.4 and 37 °C under agitation using the phosphate buffer described above as diluting agent. […] Acetonitrile (2%) was used in all studies to ensure adequate solubilization of the substrates.

[2] = test system: Mycobacterium smegmatis homogenate; assay: Stability in Mycobacterium smegmatis homogenate (enzymatic hydrolysis); settings: Mycobacterium smegmatis homogenate, 37°C
[3] = as above; settings: pH 7.4; for half-life at 500 µM: mycobacterium smegmatis homogenate; for half-life: Mycobacterium smegmatis
[4] = test system: Mycobacterium tuberculosis H37Rv; assay: MIC and MBC by broth microdilution against M. tuberculosis H37Rv; type: cell-based, Mycobacterium tuberculosis H37Rv (ATCC 27294)
[5] = Stability in human plasma (enzymatic hydrolysis)
Description: The studies of stability in human plasma were performed in human plasma diluted to 80% with phosphate buffer pH 7.4 of total concentration 0.05 M and ionic strength 0.15 M at 37°C. […] Study of enzymatic hydrolysis. […] Initial substrate concentration (ester) - 5×10^-4M with 2% ACN.
Pooled human plasma (960 µL), pH 7.4 phosphate buffered saline (216 µL), 18 µL ACN and 6 µL of a 10-1 M stock solution of the prodrug in ACN were mixed in a 2mL vial. The suspensions were incubated at 37 °C and 50 µL aliquots were removed, mixed with 450 µL of ACN: ZnSO4 1% 1:1 and centrifuged. The supernatant was removed and analysed by HPLC, the remaining substrate and the correspondent acid measured.
Two HPLC systems were used. The buffer and plasma stability studies were performed in an HPLC system with a photodiode detector L-3000 Photo Diode Array Detector, Merck-Hitachi L-6000 pump, Merck-Hitachi D-2500 integrator, and Merck RP-8 column. […] The eluant was a mixture of acetonitrile (60%/70%) and aqueous phosphate buffer with 5% of KH2PO4/H3PO4 0.025M (40%/30%). The flow rate was always 1 mL/1 min and wavelength was set at 230 nm. All quantifications were evaluated using calibration curves from stock solutions.
The initial substrate concentration was 5 x 10^-4 M in all stability assays. All incubations were carried out at pH 7.4 and 37 °C under agitation using the phosphate buffer described above as diluting agent. […] Acetonitrile (2%) was used in all studies to ensure adequate solubilization of the substrates. The benzoates were added from 10 to 1M acetonitrile stock solutions. After incubation, aliquots of 50 µL were taken into vials containing 450 µL of a 1:1 solution of 1% zinc sulfate and acetonitrile, mixed in a vortex and centrifuged for 10 min at 15,000 rpm. The supernatant was then injected into the HPLC and analysed for quantification of benzoic acid and remaining benzoate. All quantifications were performed using calibration curves.

[6] = Chemical stability in phosphate buffer pH 7.4
Description: as §3, §4, §5, §6

[7] = Cytotoxicity assay in THP-1 cells; type: cell-based, human; settings: human, THP-1 cells, read-out: LC50 (the source's name)
Source text: (§1) Cytotoxicity results were obtained through lethal concentration for 50% of the cell population, LC50. Table 6. Results obtained from cytotoxicity assays for the esters, represented by LD50 in µg/mL and comparison with MIC values, in µg/mL with toxicity/activity (T/A) index.
(§2) The T/A index quantitatively is the ratio between the lethal concentration (LC50) given by the minimum inhibitory concentration (MIC).

[8] = test system: human monocytic cell line THP-1 (ATCC56 TIB202); assay: Cytotoxicity assay in THP-1 cells; type: cell-based; settings: toxicity/activity index: ratio LC50 (THP-1) / MIC (M. tuberculosis H37Rv)
Source text: as §1, §2

[9] = test system: Mycobacterium Bovis BCG infecting human macrophages THP-1; type: cell-based; settings: compound concentration 2 µg/ml
M. bovis BCG = assay: microbe, parasite or virus in culture; type: cell-based; settings: Mycobacterium tuberculosis variant bovis BCG
M. smegmatis mc2 155 = assay: MIC and MBC against M. smegmatis; type: cell-based; settings: Mycolicibacterium smegmatis, MC2155
[10] = Mycobacterium tuberculosis, H37RV, M. tuberculosis H37Rv, Table 3
[11] = Mycobacterium tuberculosis, H37RV, M. tuberculosis H37Rv, Tables 3, 6 and 7
[12] = Mycobacterium tuberculosis, H37RV, M. tuberculosis H37Rv, Table 3, read-out: MBC
[13] = Mycobacterium tuberculosis, H37RV, M. tuberculosis H37Rv, Tables 3, 6 and 7, read-out: MIC
[14] = THP-1 monocytic cells, lethal concentration for 50% of the cell population
[15] = lethal concentration for 50% of the cell population
[16] = Mycobacterium tuberculosis, H37RV

| SMILES | Degradation (%) 24h [2] [%] | Degradation (%) 48h [2] [%] | half-life at 500 µM [3] [h] | Degradation (%) 24h [5] [%] | Degradation (%) 48h [5] [%] | Degradation (%) 72h [5] [%] | Degradation (%) 24h [6] [%] | Degradation (%) 48h [6] [%] | Degradation (%) 72h [6] [%] | Degradation (%) 168h [6] [%] | Degradation (%) 332h [6] [%] | half-life [3] [h] | MBC [4, 12] [µg/mL] | MIC [4, 13] [µg/mL] | T/A [8] | also measured |
| --- | --- | --- | --- | --- | --- | --- | --- | --- | --- | --- | --- | --- | --- | --- | --- | --- |
| CCCCOC(=O)c1ccc([N+](=O)[O-])cc1 [Compound 2a] | 99 | 100 | 3.46 ± 0.49 | – | – | – | – | – | – | – | – | – | – | – | – | Degradation (%) 24h [1]: 0%; Degradation (%) 48h [1]: 1%; Degradation (%) 72h [1]: 1%; Degradation (%) 168h [1]: 2%; Degradation (%) 332h [1]: 4%; MBC [4, 10]: 128 µg/mL (≈ 573 µM); MIC [4, 11]: 64 µg/mL (≈ 287 µM) |
| CCCCNC(=O)c1ccc([N+](=O)[O-])cc1 [Compound 6a, N-butyl-4-nitrobenzamide] | 20 | 35 | – | 12 | 23 | 32 | 0 | 0 | 0 | 0 | 0 | 76.5 ± 5.3 | 256 (≈ 1150 µM) | 128 (≈ 576 µM) | – | – |
| CCCCCCCCOC(=O)c1ccc([N+](=O)[O-])cc1 [Compound 2c, Octyl 4-nitrobenzoate] | 35 | 58 | – | 100 | 100 | 100 | 0 | 1 | 1 | 3 | 6 | 39 ± 7.7 | 128 (≈ 458 µM) | 8 (≈ 28.6 µM) | 82 | CC50 [7, 14]: 657 µg/mL (≈ 2350 µM) |
| CCCCCCOC(=O)c1ccccc1 [Compound 1b, Hexyl benzoate] | 100 | 100 | – | 94 | 100 | 100 | – | – | – | – | – | 0.21 ± 0.01 | – | – | – | – |
| CCCCOC(=O)c1ccccc1 [Compound 1a, Butyl benzoate] | 100 | 100 | – | 100 | 100 | 100 | 0 | 0 | 0 | 1 | 2 | 0.2 ± 0.01 | > 256 | > 256 | – | – |
| CCCCCCNC(=O)c1ccc([N+](=O)[O-])cc1 [Compound 6b, N-hexyl-4-nitrobenzamide] | 17 | 32 | – | – | – | – | – | – | – | – | – | 87.2 ± 5.8 | 64 (≈ 256 µM) | 32 (≈ 128 µM) | – | – |
| CCCCCCCCCCCCOC(=O)c1ccc([N+](=O)[O-])cc1 [Compound 2e] | 19 | 34 | 79.4 ± 4.7 | – | – | – | – | – | – | – | – | – | – | – | – | Degradation (%) 24h [1]: 0%; Degradation (%) 48h [1]: 0%; Degradation (%) 72h [1]: 0%; Degradation (%) 168h [1]: 1%; Degradation (%) 332h [1]: 1%; MBC [4, 10]: 64 µg/mL (≈ 191 µM); MIC [4, 11]: 8 µg/mL (≈ 23.8 µM) |
| CCCCCCOC(=O)c1cc([N+](=O)[O-])cc([N+](=O)[O-])c1 [Compound 3b] | 19 | 34 | 80.9 ± 5.5 | 74 | 93 | 98 | – | – | – | – | – | – | – | – | 17 | CFU x10^4 ([9]; Time 0 days): 9.2 CFUs per mL; CFU x10^4 ([9]; Time 1 day): 14.58 CFUs per mL; CFU x10^4 ([9]; Time 3 days): 11.87 CFUs per mL; CFU x10^4 ([9]; Time 7 days): 9.83 CFUs per mL; CC50 [7, 15]: 528 µg/mL (≈ 1780 µM) |
| CCCCOC(=O)c1cc([N+](=O)[O-])cc(C(F)(F)F)c1 [Compound 4a, Butyl 3-nitro-5-(trifluoromethyl)benzoate] | 95 | 100 | – | 95 | 100 | 100 | 5 | 12 | 16 | 35 | 60 | 5.36 ± 0.44 | 1020 (≈ 3520 µM) | 1020 (≈ 3520 µM) | 0.54 | CC50 [7, 14]: 552 µg/mL (≈ 1900 µM) |
| CCCCCCCCOC(=O)c1ccccc1 [Compound 1c, Octyl benzoate] | 100 | 100 | 1.96 ± 0.02 | 45 | 71 | 84 | 0 | 0 | 0 | 0 | 0 | – | > 256 | 256 (≈ 1090 µM) | 6 | CC50 [7, 15]: 1650 µg/mL (≈ 7020 µM) |
| CCCCCCCCCCCCCCCCNC(=O)c1cc([N+](=O)[O-])cc([N+](=O)[O-])c1 [Compound 7g, N-hexadecyl-3.5-dinitrobenzamide] | 0 | 0 | – | – | – | – | – | – | – | – | – | – | – | – | – | MBC ([4]; M. tuberculosis H37Rv, Table 4): 2 µg/mL (≈ 4.59 µM); MIC ([4]; M. tuberculosis H37Rv, Table 4): 2 µg/mL (≈ 4.59 µM); MBC [4, 16]: 2 µg/mL (≈ 4.59 µM); MIC [4, 16]: 2 µg/mL (≈ 4.59 µM); CC50 ([7]; n/d (no toxicity at maximum tested dose)): > 512 µg/mL; MBC (M. bovis BCG): 4 µg/mL (≈ 9.18 µM); MIC (M. bovis BCG): 2 µg/mL (≈ 4.59 µM); MBC (M. smegmatis mc2 155): > 64 µg/mL; MIC (M. smegmatis mc2 155): 32 µg/mL (≈ 73.5 µM) |
| CCCCCCCCCCCCOC(=O)c1ccccc1 [Compound 1e, Dodecyl benzoate] | 16 | 30 | – | 3 | 6 | 9 | 0 | 0 | 0 | 0 | 0 | 91.4 ± 3.1 | 512 (≈ 1760 µM) | 256 (≈ 881 µM) | – | – |
| CCCCNC(=O)c1cc([N+](=O)[O-])cc(C(F)(F)F)c1 [Compound 8a, N-butyl-3-nitro-5-(trifluoromethyl)-benzamide] | 23 | 41 | – | 0 | 0 | 0 | 0 | 0 | 0 | 0 | 0 | 63.8 ± 4.1 | 2 (≈ 6.89 µM) | 2 (≈ 6.89 µM) | 21 | CC50 [7, 14]: 41 µg/mL (≈ 141 µM) |
| CCCCOC(=O)c1cc([N+](=O)[O-])cc([N+](=O)[O-])c1 [Compound 3a] | 93 | 99 | 6.32 ± 0.44 | 86 | 98 | 100 | 10 | 14 | 18 | 40 | 65 | – | – | – | 14 | MBC [4, 16]: 128 µg/mL (≈ 477 µM); MIC [4, 16]: 32 µg/mL (≈ 119 µM); CC50 [7, 15]: 456 µg/mL (≈ 1700 µM) |
| CCCCCCOC(=O)c1ccc([N+](=O)[O-])cc1 [Compound 2b] | 77 | 94 | 11.5 ± 0.6 | – | – | – | – | – | – | – | – | – | – | – | – | MBC [4, 10]: 128 µg/mL (≈ 509 µM); MIC [4, 11]: 64 µg/mL (≈ 255 µM) |
| CCCCCCOC(=O)c1cc([N+](=O)[O-])cc(C(F)(F)F)c1 [Compound 4b, Hexyl 3-nitro-5-(trifluoromethyl)benzoate] | 15 | 27 | – | 72 | 94 | 98 | – | – | – | – | – | 105 ± 10 | 1020 (≈ 3210 µM) | 1020 (≈ 3210 µM) | 0.62 | CC50 [7, 14]: 639 µg/mL (≈ 2000 µM) |
| CCCCNC(=O)c1cc([N+](=O)[O-])cc([N+](=O)[O-])c1 [Compound 7a, N-butyl-3.5-dinitrobenzamide] | 52 | 77 | 22.9 ± 1.5 | 0 | 0 | 0 | 0 | 0 | 0 | 0 | 0 | – | – | – | 52 | CC50 [7, 15]: 26 µg/mL (≈ 97.3 µM); MBC (M. bovis BCG): 1 µg/mL (≈ 3.74 µM); MIC (M. bovis BCG): 0.5 µg/mL (≈ 1.87 µM) |
